Source: ChEMBL document CHEMBL1177782, “Synthesis and biological evaluation of oxazole derivatives as T-type calcium channel blockers” (Bioorg Med Chem Lett, 2010)

Experiments:
[1] = target: T1, Voltage-dependent T-type calcium channel subunit alpha-1G (Homo sapiens, UniProt O43497); assay: Inhibition of T-type CaV3.1 channel expressed in HEK293 cells assessed as inhibition of calcium current by automated patch-clamp assay; type: cell-based
[2] = target: T1, Voltage-dependent T-type calcium channel subunit alpha-1G; assay: Inhibition of T-type CaV3.1 channel expressed in HEK293 cells assessed as inhibition of calcium current at 10 uM by fluorescence based HTS FDSS6000 assay; type: cell-based

T1 sequence (O43497 whole entry): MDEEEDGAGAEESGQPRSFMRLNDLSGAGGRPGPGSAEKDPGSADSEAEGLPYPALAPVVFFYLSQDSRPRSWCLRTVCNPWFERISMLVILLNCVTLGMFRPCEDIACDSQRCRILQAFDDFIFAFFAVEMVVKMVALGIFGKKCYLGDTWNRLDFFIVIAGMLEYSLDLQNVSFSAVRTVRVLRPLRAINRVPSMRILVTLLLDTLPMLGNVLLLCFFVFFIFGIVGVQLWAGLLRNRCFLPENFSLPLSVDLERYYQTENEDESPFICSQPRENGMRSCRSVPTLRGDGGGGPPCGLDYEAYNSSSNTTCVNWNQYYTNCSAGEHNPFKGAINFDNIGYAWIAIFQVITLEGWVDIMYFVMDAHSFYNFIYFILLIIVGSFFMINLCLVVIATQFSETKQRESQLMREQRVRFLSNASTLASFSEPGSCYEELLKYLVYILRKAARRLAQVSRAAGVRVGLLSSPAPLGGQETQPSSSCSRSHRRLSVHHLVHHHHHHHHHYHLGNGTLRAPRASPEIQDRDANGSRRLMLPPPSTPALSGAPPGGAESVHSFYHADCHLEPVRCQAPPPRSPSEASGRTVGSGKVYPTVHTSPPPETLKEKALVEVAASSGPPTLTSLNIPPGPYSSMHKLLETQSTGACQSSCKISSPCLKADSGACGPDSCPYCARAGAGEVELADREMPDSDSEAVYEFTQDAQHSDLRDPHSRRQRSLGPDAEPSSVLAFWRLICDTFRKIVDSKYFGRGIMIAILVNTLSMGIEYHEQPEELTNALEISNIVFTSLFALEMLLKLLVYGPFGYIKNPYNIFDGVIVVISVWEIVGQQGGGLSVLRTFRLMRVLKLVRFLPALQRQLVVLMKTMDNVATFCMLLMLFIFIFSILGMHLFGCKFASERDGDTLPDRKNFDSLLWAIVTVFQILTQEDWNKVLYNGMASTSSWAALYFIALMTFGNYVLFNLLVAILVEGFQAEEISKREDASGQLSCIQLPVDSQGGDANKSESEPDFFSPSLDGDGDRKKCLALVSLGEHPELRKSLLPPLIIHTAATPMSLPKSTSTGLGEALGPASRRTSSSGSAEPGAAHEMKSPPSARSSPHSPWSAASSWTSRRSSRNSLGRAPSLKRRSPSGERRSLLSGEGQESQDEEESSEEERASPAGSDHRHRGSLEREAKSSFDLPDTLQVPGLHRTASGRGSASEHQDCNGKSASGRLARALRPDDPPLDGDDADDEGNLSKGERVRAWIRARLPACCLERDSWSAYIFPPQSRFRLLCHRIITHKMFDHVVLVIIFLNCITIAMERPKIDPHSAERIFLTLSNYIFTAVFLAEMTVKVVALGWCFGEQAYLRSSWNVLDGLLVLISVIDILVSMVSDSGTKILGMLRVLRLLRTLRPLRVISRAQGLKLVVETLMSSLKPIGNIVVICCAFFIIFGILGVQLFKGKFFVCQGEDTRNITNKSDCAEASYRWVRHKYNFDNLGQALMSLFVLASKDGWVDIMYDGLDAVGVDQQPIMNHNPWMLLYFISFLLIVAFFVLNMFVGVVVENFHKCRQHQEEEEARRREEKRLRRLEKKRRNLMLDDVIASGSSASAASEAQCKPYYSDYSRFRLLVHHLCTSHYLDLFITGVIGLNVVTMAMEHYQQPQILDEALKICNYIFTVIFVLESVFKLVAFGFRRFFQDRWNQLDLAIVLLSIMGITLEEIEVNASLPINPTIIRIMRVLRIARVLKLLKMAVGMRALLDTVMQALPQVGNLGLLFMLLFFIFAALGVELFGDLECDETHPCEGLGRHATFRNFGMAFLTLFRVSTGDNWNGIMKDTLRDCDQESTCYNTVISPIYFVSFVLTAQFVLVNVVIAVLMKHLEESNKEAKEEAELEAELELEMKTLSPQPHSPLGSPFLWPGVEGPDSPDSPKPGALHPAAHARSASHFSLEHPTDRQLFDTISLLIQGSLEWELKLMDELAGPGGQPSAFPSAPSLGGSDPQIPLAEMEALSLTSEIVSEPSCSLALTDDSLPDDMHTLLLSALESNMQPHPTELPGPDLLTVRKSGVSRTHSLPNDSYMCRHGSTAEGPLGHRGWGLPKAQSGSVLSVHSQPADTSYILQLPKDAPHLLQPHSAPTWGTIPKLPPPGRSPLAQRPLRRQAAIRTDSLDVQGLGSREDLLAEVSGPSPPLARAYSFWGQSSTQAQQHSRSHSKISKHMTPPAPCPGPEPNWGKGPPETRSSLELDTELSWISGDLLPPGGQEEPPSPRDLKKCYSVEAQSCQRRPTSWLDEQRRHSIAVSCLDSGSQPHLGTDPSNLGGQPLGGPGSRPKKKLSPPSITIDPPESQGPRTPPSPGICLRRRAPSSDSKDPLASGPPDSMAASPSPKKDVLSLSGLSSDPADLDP

Row | IC50 [1] | inhibition [2] | Compound
1 | 1450 nM | 51.2% | CCCc1nc(-c2ccccc2)c(CNCCN2CCN(c3cccc(Cl)c3)CC2)o1
2 |  | 42.1% | CCCc1nc(-c2ccccc2)c(CNCCCN2CCN(c3ccc(OC)cc3)CC2)o1
3 | 1750 nM | 65.9% | CCCc1nc(-c2ccccc2)c(CNCCCN2CCN(c3cccc(Cl)c3)CC2)o1
4 |  | 40.2% | CCCc1nc(-c2ccccc2)c(CNCCN2CCN(c3cccc(OC)c3)CC2)o1
5 | 1190 nM | 47.8% | CCCc1nc(-c2ccccc2)c(CNCCCN2CCN(c3cccc(C)c3)CC2)o1
6 |  | 39.7% | CCCc1nc(-c2ccccc2)c(CNCCN2CCN(c3ccccc3OC)CC2)o1
7 | 9200 nM | 51.5% | CCCc1nc(-c2ccccc2)c(CNCCN2CCN(c3ccc(OC)cc3)CC2)o1
8 |  | 43.1% | CCCc1nc(-c2ccccc2)c(CNCCN2CCN(c3cccc(C)c3)CC2)o1
9 | 1940 nM | 56.3% | CCCc1nc(-c2ccccc2)c(CNCCN2CCN(c3cccc(C(F)(F)F)c3)CC2)o1
10 | 3030 nM | 68.9% | CCCc1nc(-c2ccccc2)c(CNCCCN2CCN(c3cccc(F)c3)CC2)o1
11 | 10200 nM | 54.3% | CCCc1nc(-c2ccccc2)c(CNCCN2CCN(c3ccccc3)CC2)o1
12 | 3350 nM | 62.3% | CCCc1nc(-c2ccccc2)c(CNCCN2CCN(c3cccc(F)c3)CC2)o1
13 |  | 48.1% | CCCc1nc(-c2ccccc2)c(CNCCN2CCN(c3ccc(C)cc3)CC2)o1
14 |  | 36.4% | CCCc1nc(-c2ccccc2)c(CNCCCN2CCN(c3cccc(OC)c3)CC2)o1

Continued, molecule first:

Row | Compound | IC50 [1] | inhibition [2]
15 | CCCc1nc(-c2ccccc2)c(CNCCN2CCN(c3ccccn3)CC2)o1 |  | 48.1%
16 | CCCc1nc(-c2ccccc2)c(CNCCCN2CCN(c3ccccc3Cl)CC2)o1 | 2800 nM | 64.7%
17 | CCCc1nc(-c2ccccc2)c(CNCCCN2CCN(c3cccc(C)c3C)CC2)o1 | 1780 nM | 55.2%
18 | CCCc1nc(-c2ccccc2)c(CNCCN2CCN(c3ccccc3F)CC2)o1 |  | 46.5%
19 | CCCc1nc(-c2ccccc2)c(CNCCCN2CCN(c3ccc(C(F)(F)F)cc3)CC2)o1 | 7250 nM | 51.6%
20 | Cc1nc(-c2ccccc2)c(CNCCN2CCN(C(c3ccccc3)c3ccccc3)CC2)o1 |  | 57.3%
21 | CCCc1nc(-c2ccccc2)c(CNCCCN2CCN(c3ccc(C)cc3)CC2)o1 | 130000 nM | 53.9%
22 | CCCc1nc(-c2ccccc2)c(CNCCCN2CCN(c3ccccc3C)CC2)o1 | 8750 nM | 54.5%
23 | CCCc1nc(-c2ccccc2)c(CNCCCN2CCN(c3ccccc3)CC2)o1 |  | 43.7%
24 | CCCc1nc(-c2ccccc2)c(CNCCCN2CCN(c3ccccc3F)CC2)o1 | 16100 nM | 54.4%
25 | CCCc1nc(-c2ccccc2)c(CNCCN2CCN(c3ccc(Cl)cc3)CC2)o1 | 2820 nM | 55.8%
26 | CCCc1nc(-c2ccccc2)c(CNCCN2CCN(c3ccccc3C)CC2)o1 | 4300 nM | 51.3%
27 | CCCc1nc(-c2ccccc2)c(CNCCN2CCN(c3cccc(C)c3C)CC2)o1 | 1710 nM | 66.7%
28 | CCCc1nc(-c2ccccc2)c(CNCCN2CCN(c3ccccc3Cl)CC2)o1 | 4370 nM | 60.1%
29 | CCCc1nc(-c2ccccc2)c(CNCCN2CCN(c3ccc(C)c(C)c3)CC2)o1 | 2220 nM | 67.9%
30 | CCCc1nc(-c2ccccc2)c(CNCCN2CCN(c3ccc(F)cc3)CC2)o1 | 7080 nM | 54.1%
31 | CCCc1nc(-c2ccccc2)c(CNCCN2CCN(c3ccccc3C(F)(F)F)CC2)o1 | 2100 nM | 54.6%
32 | CCCc1nc(-c2ccccc2)c(CNCCN2CCN(C(c3ccccc3)c3ccccc3)CC2)o1 | 7470 nM | 71.8%
33 | CCCc1nc(-c2ccccc2)c(CNCCCN2CCN(c3cccc(C(F)(F)F)c3)CC2)o1 | 650 nM | 51.6%
34 | CCCc1nc(-c2ccccc2)c(CNCCCN2CCN(c3ccc(F)cc3)CC2)o1 | 3210 nM | 62.5%
35 | CCCc1nc(-c2ccccc2)c(CNCCN2CCN(c3ccc(C(F)(F)F)cc3)CC2)o1 | 1300 nM | 58.7%
36 | CCCc1nc(-c2ccccc2)c(CNCCCN2CCN(c3ccccc3C(F)(F)F)CC2)o1 |  | 45%
37 | CCCc1nc(-c2ccccc2)c(CNCCCN2CCN(c3ccc(C)c(C)c3)CC2)o1 | 3020 nM | 54.6%
38 | CCCc1nc(-c2ccccc2)c(CNCCCN2CCN(c3ccccc3OC)CC2)o1 |  | 41%
39 | CCCc1nc(-c2ccccc2)c(CNCCCN2CCN(c3ccc(Cl)cc3)CC2)o1 | 1310 nM | 63.2%
40 | CCCc1nc(-c2ccccc2)c(CNCCN2CCN(c3ccc(C)cc3C)CC2)o1 | 2220 nM | 64.3%
41 | Cc1nc(-c2ccccc2)c(CNCCCN2CCN(c3ccc(Cl)cc3)CC2)o1 |  | 38.1%
